Test results from the supplement of paper PMC11061612.

Legend:
Assay in all cases: Bliss excess, mean over the matrix (fraction); higher = more synergy
[1] = test system: P32-ISH (Burkitt's Lymphoma)
Outline: (§1)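 After 24 hours at 37°C and 5% CO2 in 1536-well plates, cells in DMEM/F12 or RPMI plus 10% FBS received two-drug dose matrices for 72 hours. Viability came from CellTiter-Glo 2.0 luminescence and was scaled as inhibition, anchored at 0 by vehicle wells and at 1 by blank wells. Combination Emax is taken as the second-highest inhibition in the matrix, and Bliss excess as the observed combination effect less EA + EB − EA·EB, with EA and EB the single-agent effects.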

[2] = test system: OVCAR-3 (Ovarian Carcinoma)
Outline: as §1

UACC-257 (Melanoma) = test system: UACC-257 (Melanoma)
Outline: as §1

[3] = test system: MOLP-8 (Plasma Cell Myeloma)
Outline: as §1

[4] = test system: SK-CO-1 (Colorectal Carcinoma)
Outline: as §1

[5] = test system: PL4 (Pancreatic Carcinoma)
Outline: as §1

[6] = test system: SNU-407 (Colorectal Carcinoma)
Outline: as §1

[7] = test system: RCC-JW (Kidney Carcinoma)
Outline: as §1

[8] = test system: CPC-N (Small Cell Lung Carcinoma)
Outline: as §1

[9] = test system: PA-TU-8988T (Pancreatic Carcinoma)
Outline: as §1

[10] = test system: NCI-H3118 (Head and Neck Carcinoma)
Outline: as §1

T47D (Breast Carcinoma) = test system: T47D (Breast Carcinoma)
Outline: as §1

[11] = test system: NCI-H596 (Other Solid Carcinomas)
Outline: as §1

WM35 (Melanoma) = test system: WM35 (Melanoma)
Outline: as §1

[12] = test system: SKG-IIIa (Cervical Carcinoma)
Outline: as §1

[13] = test system: SUP-M2 (T-Cell Non-Hodgkin's Lymphoma)
Outline: as §1

[14] = test system: LS-1034 (Colorectal Carcinoma)
Outline: as §1

[15] = test system: CL-11 (Colorectal Carcinoma)
Outline: as §1

ES6 (Ewing's Sarcoma) = test system: ES6 (Ewing's Sarcoma)
Outline: as §1

[16] = test system: OAW-28 (Ovarian Carcinoma)
Outline: as §1

Structure (SMILES)	Bliss excess [1]	Bliss excess [2]	Bliss excess (UACC-257 (Melanoma))	Bliss excess [3]	Bliss excess [4]	Bliss excess [5]	Bliss excess [6]	Bliss excess [7]	Bliss excess [8]	Bliss excess [9]	Bliss excess [10]	Bliss excess (T47D (Breast Carcinoma))	Bliss excess [11]	Bliss excess (WM35 (Melanoma))	Bliss excess [12]	Bliss excess [13]	Bliss excess [14]	Bliss excess [15]	Bliss excess (ES6 (Ewing's Sarcoma))	Bliss excess [16]
COc1nnc2ccc(N3CCC(c4ccc(OCCN5CCN(C)C(=O)[C@H]5C)cc4)CC3)nn12 [AZD5153] + CCN(CCO)CCCOc1ccc2c(Nc3cc(CC(=O)Nc4cccc(F)c4)[nH]n3)ncnc2c1 [AZD2811] (first compound max 1 µM, 7x7, partner max 1 µM)	-0.0959	-0.0394	0.0076	0.0011	-0.0746	-0.0333	-0.0476	-0.0416	-0.0601	0.0086	-0.0437	-0.0182	-0.0612	-0.016	-0.0193	-0.0132	-0.046	-0.0529	-0.0476	-0.0115
COc1nnc2ccc(N3CCC(c4ccc(OCCN5CCN(C)C(=O)[C@H]5C)cc4)CC3)nn12 [AZD5153] + C[C@@H]1COCCN1C2=NC(=NC(=C2)C3(CC3)[S@](=N)(=O)C)C4=C5C=CNC5=NC=C4 [AZD6738] (first compound max 1 µM, 7x7, partner max 10 µM)	-0.0039	0.0931	0.0581	-0.0211	-0.0179	-0.0425	0.003	0.0051	-0.0692	0.0531	-0.0879	0.0796	-0.0028	0.0621	0.0105	-0.0205	-0.0132	-0.0383	0.0339	0.11
COc1nnc2ccc(N3CCC(c4ccc(OCCN5CCN(C)C(=O)[C@H]5C)cc4)CC3)nn12 [AZD5153] + Cc1c2c(nn1C)CSCc1cc(n(C)n1)CSc1cc(c3ccccc3c1)OCCCc1c(C(=O)O)n(C)c3c-2c(Cl)ccc13 [AZD5991] (first compound max 1 µM, 7x7, partner max 1 µM)	-0.0108	0.0003	-0.019	-0.0051	-0.0377	-0.0242	-0.0996	-0.0078	0.0163	0.005	-0.0602	0.0003	-0.0532	0.0634	-0.0782	-0.0372	-0.0569	-0.0499	-0.0033	0.0515
COc1nnc2ccc(N3CCC(c4ccc(OCCN5CCN(C)C(=O)[C@H]5C)cc4)CC3)nn12 [AZD5153] + Cn1cnc2c(F)c(Nc3ccc(Br)cc3Cl)c(C(=O)NOCCO)cc21 [Selumetinib] (first compound max 1 µM, 7x7, partner max 10 µM)	-0.0417	-0.0489	0.0284	0.0094	-0.0134	-0.0089	-0.0175	0.0214	-0.0222	0.0423	-0.0164	0.0101	-0.0344	0.0702	0.0128	-0.0138	0.0264	0.0425	0.053	0.0279
Cc1c2c(nn1C)CSCc1cc(n(C)n1)CSc1cc(c3ccccc3c1)OCCCc1c(C(=O)O)n(C)c3c-2c(Cl)ccc13 [AZD5991] + C1CN(CCC1(C(=O)N[C@@H](CCO)C2=CC=C(C=C2)Cl)N)C3=NC=NC4=C3C=CN4 [Capivasertib] (first compound max 1 µM, 7x7, partner max 3 µM)	0.0276	0.0217	0.0061	0.0077	-0.0119	0.0199	0.0036	0.0131	0.0177	-0.01	0.0263	-0.0887	-0.0035	-0.0183	-0.0231	-0.0079	-0.0042	-0.0234	-0.0055	0.045
Cc1c2c(nn1C)CSCc1cc(n(C)n1)CSc1cc(c3ccccc3c1)OCCCc1c(C(=O)O)n(C)c3c-2c(Cl)ccc13 [AZD5991] + C=CCn1c(=O)c2cnc(Nc3ccc(N4CCN(C)CC4)cc3)nc2n1-c1cccc(C(C)(C)O)n1 [AZD1775] (first compound max 1 µM, partner max 1 µM)	-0.0228	0.031	0.0163	-0.0041	-0.0425	-0.0928	-0.0183	0.0418	-0.0453	-0.0321	-0.0361	-0.0369	-0.0682	0.027	0.0071	0.0007	-0.098	-0.0112	0.0814	0.0049
Cc1c2c(nn1C)CSCc1cc(n(C)n1)CSc1cc(c3ccccc3c1)OCCCc1c(C(=O)O)n(C)c3c-2c(Cl)ccc13 [AZD5991] + CC1(C)CCC(CN2CCN(c3ccc(C(=O)NS(=O)(=O)c4ccc(NCC5CCOCC5)c([N+](=O)[O-])c4)c(Oc4cnc5[nH]ccc5c4)c3)CC2)=C(c2ccc(Cl)cc2)C1 [Venetoclax] (first compound max 1 µM, 7x7, partner max 1 µM)	0.0054	-0.0103	-0.0485	0.0174	-0.0378	-0.0611	0.0014	-0.0335	-0.017	-0.0031	-0.0163	-0.0042	-0.0102	0.0181	-0.0115	0.0286	-0.0159	-0.0254	-0.0065	0.13
Cc1c2c(nn1C)CSCc1cc(n(C)n1)CSc1cc(c3ccccc3c1)OCCCc1c(C(=O)O)n(C)c3c-2c(Cl)ccc13 [AZD5991] + CN(C)CCCOc1ccc(-c2ccc3ncc4c(c3c2)n(C2CCOCC2)c(=O)n4C)cn1 [AZD0156] (first compound max 1 µM, 7x7, partner max 1 µM)	0.0083	0.0405	-0.0064	0.0086	-0.0182	0.056	-0.463	-0.0001	-0.0129	0.0146	0.0092	0.0093	-0.0088	0.0155	0.0104	-0.0012	-0.0032	-0.0081	-0.0113	0.0335
Cc1c2c(nn1C)CSCc1cc(n(C)n1)CSc1cc(c3ccccc3c1)OCCCc1c(C(=O)O)n(C)c3c-2c(Cl)ccc13 [AZD5991] + C[C@@H]1COCCN1C2=NC(=NC(=C2)C3(CC3)[S@](=N)(=O)C)C4=C5C=CNC5=NC=C4 [AZD6738] (first compound max 1 µM, 7x7, partner max 10 µM)	0.0231	0.0623	0.0278	0.0254	-0.0164	0.0606	0.0148	0.0192	-0.024	0.0151	0.0942	0.0333	-0.0172	0.0604	0.0106	0.0505	-0.0346	0.0322	0.0289	0.0799
Cc1c2c(nn1C)CSCc1cc(n(C)n1)CSc1cc(c3ccccc3c1)OCCCc1c(C(=O)O)n(C)c3c-2c(Cl)ccc13 [AZD5991] + Cc1cc2ncnn2cc1Nc1ncc2c(n1)n(C1CCOCC1)c(=O)n2C [AZD7648] (first compound max 1 µM, 7x7, partner max 10 µM)	0.0465	-0.0311	-0.0242	0.0192	-0.0402	-0.0395	-0.0369	-0.0349	-0.0109	-0.051	-0.0707	-0.0159	0.0056	-0.0073	-0.0261	-0.0146	0.0092	-0.0533	-0.0745	0.0125
Cc1c2c(nn1C)CSCc1cc(n(C)n1)CSc1cc(c3ccccc3c1)OCCCc1c(C(=O)O)n(C)c3c-2c(Cl)ccc13 [AZD5991] + Cn1cnc2c(F)c(Nc3ccc(Br)cc3Cl)c(C(=O)NOCCO)cc21 [Selumetinib] (first compound max 1 µM, 7x7, partner max 3 µM)	0.0025	0.0353	0.0215	0.0291	-0.0218	-0.0325	0.0342	-0.0319	0.0185	0.0457	0.0324	-0.0092	-0.0098	0.0794	-0.0076	0.048	0.0513	-0.0222	-0.039	0.089
C[C@@H]1COCCN1c1cc(C2([S@](C)(=N)=O)CC2)nc(-c2ccnc3[nH]ccc23)n1 [AZD6738] + O=C(c1cc(Cc2n[nH]c(=O)c3ccccc23)ccc1F)N1CCN(C(=O)C2CC2)CC1 [Olaparib] (first compound max 10 µM, 7x7, partner max 10 µM)	-0.0424	0.0782	-0.0009	0.003	0.013	-0.0408	-0.0323	0.0465	0.015	0.0472	-0.0038	0.0359	-0.0841	0.0084	0.0236	0.0646	-0.0391	0.0013	0.0128	-0.0159
Cc1cc2ncnn2cc1Nc1ncc2c(n1)n(C1CCOCC1)c(=O)n2C [AZD7648] + C=CCn1c(=O)c2cnc(Nc3ccc(N4CCN(C)CC4)cc3)nc2n1-c1cccc(C(C)(C)O)n1 [AZD1775] (first compound max 10 µM, partner max 1 µM)	-0.0011	-0.0355	0.0334	0.0123	-0.0846	0.0057	0.0134	-0.0102	-0.0055	-0.0563	-0.0219	-0.0146	-0.0342	-0.0364	0.0237	0.0377	-0.0645	0.0119	-0.0031	-0.0066
Cc1cc2ncnn2cc1Nc1ncc2c(n1)n(C1CCOCC1)c(=O)n2C [AZD7648] + CCN(CCO)CCCOc1ccc2c(Nc3cc(CC(=O)Nc4cccc(F)c4)[nH]n3)ncnc2c1 [AZD2811] (first compound max 10 µM, 7x7, partner max 1 µM)	-0.0367	0.0046	0.0315	0.0616	-0.0524	-0.0041	0.023	-0.011	-0.0306	0.0056	0.0241	0.055	-0.0576	-0.0036	-0.0161	-0.0267	0.0104	0.0274	-0.0042	0.0284
Cc1cc2ncnn2cc1Nc1ncc2c(n1)n(C1CCOCC1)c(=O)n2C [AZD7648] + CN(C)CCCOc1ccc(-c2ccc3ncc4c(c3c2)n(C2CCOCC2)c(=O)n4C)cn1 [AZD0156] (first compound max 10 µM, 7x7, partner max 1 µM)	0.0153	0.0157	-0.02	0.0712	-0.0486	-0.0153	-0.0385	-0.0158	0.0326	0.0174	0.0143	0.0055	-0.002	-0.0123	-0.0195	0.0397	-0.0187	0.0399	-0.0234	-0.0115
